# Measured values reported in article PMC7058083, “Structural basis of ligand binding modes at the human formyl peptide receptor 2” (Nature Communications, 2020).
# Experiments:
# [1] = system: FPR2 (wild type and mutant V113A); assay: cAMP inhibition assay, HEK293 cells, 5 μM forskolin; type: cell-based, human
# Excerpt: contribute to the effect of mutations on ligand binding and receptor signaling in addition to the direct disruption of receptor-ligand interaction.
# To make the above clear, the statement “The effect of these mutations on ligand binding and receptor signaling could be explained by direct disruption of the receptor-ligand interaction, destabilization of ligand-binding pocket conformation, and/or impairment of global conformational rearrangement required for receptor activation” has been added to the […]
# 3) The authors use the crystal structures as an opportunity to dock other ligands with the their experimentally determined structure of FPR2. With the exception of LXA4, the docking of formyl peptides with mutagenesis experiments produce insightful results for fMLFK. For LXA4, more work is necessary to justify the docking pose. Otherwise, it is my opinion that it should […]
# — We appreciated the reviewer’s comment. Functional assays for LXA4 are challenging due to the poor ability of this ligand to trigger calcium mobilization and IP accumulation. To verify the predicted binding mode of LXA4 in FPR2, we have performed additional assays by […]
# fold while having minimal effect on the LXA4-induced cAMP reduction. […]
# model of LXA4. […]
# was detected and the concentrations were shown. […]
# 5) How was the omit map calculated to remove any bias for the agonist in SFig. […]
# FPR2 [2] = system: FPR2; set-up: method as in PMID 24285541; conditions: cited from earlier work
# Experimental: To investigate the binding mode of formyl peptide in FPR2, molecular docking of this tripeptide to the FPR2 crystal structure was performed (Supplementary Data 2). […] It was also reported that the polar residue D281^7.32 was crucial for the interaction of FPR2 with certain formyl peptides. It was proposed that this negatively charged residue in FPR2 was repulsive with the C-terminal COO− group of fMLF and the negatively charged glutamate residue in fMLFE, but forms a stable interaction with the p ...
# FPR2 [3] = system: FPR2; set-up: method as in 3 sources, ref 4 = [4]; PMID 24285541; doi:10.1074/jbc.M113.509216; 4. He HQ Troksa EL Caltabiano G Pardo L Ye RD Structural determinants for the interaction of formyl peptide receptor 2 with peptide ligands J. Biol. Chem. 2014 289 2295 2306 10.1074/jbc.M113.509216 24 ||| ref 34 = [34]; PMID 11818455; 34. Bae YS Kim Y Park JC Suh PG Ryu SH The synthetic chemoattractant peptide, Trp-Lys-Tyr-Met-Val-D-Met, enhances monocyte survival via PKC-dependent Akt activation J. Leukoc. Biol. 2002 71 329 338 11 ||| ref 35 = [35]; PMID 11285256; doi:10.1074/jbc.M007769200; 35. Christophe T The synthetic peptide Trp-Lys-Tyr-Met-Val-Met-NH 2 specifically activates neutrophils through FPRL1/lipoxin A 4 receptors and is an agonist for the orphan monocyte-expressed chemoattr; conditions: cited from earlier work
# FPR2 [4] = conditions: cited from earlier work
# Excerpt: This movement breaks the hydrogen bonds between the C-terminal NH2- group of the peptide and the receptor residues D106^3.33 and R201^5.38, and disrupts the polar interaction network establishe ...
compound,measurement,setting,value
"CCCCC[C@H](O)/C=C/C=C\C=C\C=C\[C@@H](O)[C@@H](O)CCCC(=O)O [LXA4, lipoxin A4]",effect of mutation on ligand-induced cAMP reduction,"[1]; FPR2 V113A, 30 min",minimal
same,change in intracellular cAMP,"[1]; wild-type FPR2, 30 min",measurable changes
N-formyl-Met-Leu-Phe [fMLF],lower binding affinity,FPR2 [2]; FPR2 compared to FPR1,over 400 fold
same,lower potency in inducing Ca2+ mobilization,FPR2 [3]; FPR2 compared to FPR1,2000 fold
WKYMVM-NH2,reduction in EC50 in stimulating phosphoinositide hydrolysis relative to WKYMVm,FPR2 [4],over 100 fold
fMLFII [formyl pentapeptide agonist],binding affinity over fMLF at FPR2,FPR2 [2],increased
same,agonist potency over fMLF at FPR2,FPR2 [3],increased
